Experimental data published in US9120787B2, “HIV replication inhibitors” (priority 2011, dated 2015).
Where two headings read alike, the source gives them in different places.

Assays:
[1] = system: peripheral blood mononuclear cells (PBMC); test: Cytotoxicity by MTS staining in PBMCs; type: cell-based; settings: read-out: TC50 (the source's name)
Protocol: Cytotoxicity was assessed by MTS staining. At assay end-point, PBMC were stained with the addition of […] of the soluble tetrazolium-based dye MTS to determine cell viability and quantify compound toxicity. The plates were incubated 4 to 6 hrs at 37° C. Following incubation, the activity was assessed by reading absorbance values at 490/650 nm.

HIV-1Ba-L [2] = test: Inhibition of virus replication in MAGI-CCR5 cells (β-galactosidase reporter); type: cell-based; settings: HIV-1Ba-L in MAGI-CCR5 cells
How it was run: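 HeLa-derived MAGI-CCR5 cells (high CD4/CCR5, HIV-1 LTR-driven β-galactosidase) plated at 1.0×10^4 cells/well the day before infection with HIV-1Ba-L. Compounds tested at six concentrations in triplicate, with parallel uninfected plates for cytotoxicity.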

HIV-1Ba-L [3] = test: HIV-1Ba-L replication in PBMCs (supernatant RT end-point)
How it was run: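 Pooled PHA-stimulated human PBMCs (5×10^4 cells/well) were infected with HIV-1Ba-L at MOI 0.1 with nine ½-log compound dilutions and cultured seven days at 37° C. Supernatant RT activity was measured by ^3H-TTP incorporation on poly rA:oligo dT (60 minutes, 37° C) and counted by scintillation.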

MAGI-CCR5 cells = test: Cytotoxicity by MTS staining in uninfected MAGI-CCR5 cells; type: cell-based; settings: 48 hours, read-out: TC50 (the source's name)
How it was run: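 Uninfected MAGI-CCR5 cells (HeLa-CD4-LTR-β-gal derived, expressing CD4/CCR5) plated at 1.0×10^4 cells/well the day before, then exposed to compounds at six concentrations in triplicate alongside parallel infected assays. Viability read by MTS staining.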

HIV-1 K103N, Y181C (A17) = HIV-1 K103N, Y181C (A17) replication in PBMCs; type: cell-based; settings: Virus A17 (K103N, Y181C) in PBMCs
From the text: In another embodiment of the present disclosure compounds are provided which inhibit the replication of HIV strains resistant to NNRTIs. Compounds in this disclosure inhibit, A17, an HIV-1 virus with mutations in the RT non-nucleoside binding pocket, K103N and Y181C, in a dose-dependent susceptibility testing manner.
The asparagine variation at residue 103 and the cysteine variation at residue 181 are known to inhibit the activity of the NNRTI's.
Evaluation Dihydropyrimidines vs. HIV-1Ba-L and HIV-1 K103N, Y181C in PBMCs

[4] = Virus Ba-L in PBMCs (Ba-L vs A17 comparison)

Cc1cn([C@H]2C[C@H](N=[N+]=[N-])[C@@H](CO)O2)c(=O)[nH]c1=O [AZT, reference compound]
CC50 ([1]; A17 line of the table): > 1000 nM | CC50 ([1]; Ba-L line of the table): > 1000 nM | CC50 ([1]; MTS staining): > 1000 nM | TI (TC50/IC50) (HIV-1Ba-L [2]): >36.5 | IC50 (HIV-1Ba-L [2]; 48 hours, β-galactosidase reporter expression, read-out: IC50): 80 nM | TI (TC50/IC50) (HIV-1Ba-L [3]; HIV-1Ba-L in PBMCs): >54.9 | IC50 (HIV-1Ba-L [3]; HIV-1Ba-L in PBMCs, seven days, RT end-point): 20 nM | IC50 (HIV-1Ba-L [3]; [4]): 11 nM | TI (TC50/IC50) (HIV-1Ba-L [3]; [4]): >88.6 | CC50 (MAGI-CCR5 cells): > 1000 nM | TI (TC50/IC50) (HIV-1 K103N, Y181C (A17)): >629.0 | IC50 (HIV-1 K103N, Y181C (A17); read-out: IC50): 1.6 nM
